Measured values from patent US10709757B2, “Pharmaceutical composition for anti-angiogenesis containing cyclic pentadepsipeptide as an effective ingredient” (CHUNG-ANG UNIVERSITY INDUSTRY-ACADEMIC COOPERATION …, priority 2017, dated 2020).

What was measured:
AKT = assay: Phosphorylation assay of AKT in VEGF-induced HUVECs (Western); assay type: cell-based, human; settings: VEGF 50 ng/ml, FIG. 2
Procedure: (§1) After being cultured to 80-90% confluence, human umbilical vein endothelial cells (HUVECs) were additionally cultured in an M199 medium supplemented with 1% FBS for 6 hours, and then treated with neo-N-methylsansalvamide (NMSSV) at various concentrations in the presence of VEGF (50 ng/ml) for 10 minutes. Effects of neo-N-methylsansalvamide (NMSSV) in the phosphorylation assay of ERK1/2, AKT, and eNOS of HUVEC cells were measured by a Western assay method using each antibody.
(§2) In this case, the HUVECs were pre-cultured for 10 minutes prior to the VEGF stimulation and along with P2 for 40 minutes.

eNOS = assay: Phosphorylation assay of eNOS in VEGF-induced HUVECs (Western); assay type: cell-based, human; settings: VEGF 50 ng/ml, FIG. 2
Procedure: as §1, §2

HUVECs [1] = assay: Colony tube formation assay; assay type: cell-based, human; settings: Matrigel, VEGF 50 ng/ml, 24 hours, FIG. 3
Procedure: After being cultured to 80-90% confluence in a plate covered with Matrigel (Collaborative Biomedical Products, Bedford, Mass.), HUVECs were additionally cultured in an M199 medium supplemented with 1% FBS for 6 hours, and then treated with neo-N-methylsansalvamide (NMSSV) at various concentrations in the presence of VEGF (50 ng/ml) for 24 hours. The tube formation was photographed by using a phase-contrast microscope.
The formation of capillary-like tubular structures by endothelial cells is one of the most essential steps in the development of angiogenesis, and it was checked whether P2 inhibited the formation of capillary-like network structures in HUVECs in Matrigel.

HUVECs [2] = assay: Transwell invasion assay; assay type: cell-based, human; settings: VEGF 50 ng/ml, 24 hours, FIG. 5
Procedure: An experiment was performed by using a modified Boyden chamber prepared with a polycarbonate nucleopore membrane (Corning, Corning, N.Y.). After trypsin-EDTA was added to the cells, the cells were collected, the cells were measured by using a hematocytometer, and then the concentration was set to 4×10^5 cells/ml, and the cells were respectively aliquoted. After 700 μl of the medium was added to the bottom well and an insert was placed thereon, 100 μl of cells prepared with neo-N-methylsansalvamide (NMSSV) at various concentrations were aliquoted into the insert in the presence of VEGF (50 ng/ml) and cultured in an incubator at 37° C. for 24 hours. […] After the cells, which succeeded in passing through the gelatin, were fixed with 4% paraformaldehyde, the cells were stained by using crystal violet, washed twice with PBS, and then placed on a glass plate. Thereafter, the cells were observed by using a microscope, and arbitrary five points were marked, photographed, and observed.
(§3) Subsequently, the migration and invasion of endothelial cells is also a main step of angiogenesis leading to the formation of new blood vessels, so that effects of P2 on mobility and invasiveness of VEGF-induced HUVECs were checked by using a wound-healing migration assay and a Transwell invasion assay.

HUVECs [3] = assay: Wound-healing migration assay; assay type: cell-based, human; settings: VEGF 50 ng/ml, 24 hours, FIG. 4
Procedure: When cells were grown to approximately 90%, the medium was suctioned, and then a line was created by steadily scratching the bottom of the plate with a yellow tip, and then the cells were washed with PBS and treated with neo-N-methylsansalvamide (NMSSV) at various concentrations in the presence of VEGF (50 ng/ml) for 24 hours. After 24 hours, the tendency of cells to migrate at each treatment concentration was photographed and observed by marking the position under a microscope at 40× magnification.
as §3

C57BL/6 mice [4] = assay: Laser-induced choroidal neovascularization (CNV) mouse model, angiography; assay type: in vivo; settings: intravitreal injection once, 14 days after laser, vs control, FIG. 8
Procedure: (§4) More specifically, male 6-week-old C57BL/6 mice were purchased from Orient Bio Inc., and acclimated for 1 week, and then anesthetized, and the pupils were dilated. Subsequently, an animal model was prepared by irradiating the space around the ophthalmic nerves in 12, 3, 6, and 9 o'clock directions with diode green laser (532 nm, 200 mW, 0.8 sec, 50 μm, and photocoagulator) to cause injury to 3 to 4 sites per eyeball.
(§5) After injury was caused to mice with laser by the method in Example 1-9-1 and the mice were anesthetized one day later, 2 μL was administered into the vitreous body of both eyes once (intravitreal injection) using a 34 gauge needle. Subsequently, 14 days after the irradiation with laser, angiography and staining and imaging of CNV were performed.
14 days after the irradiation with laser, the mice experienced mydriasis and were systemically anesthetized by injecting 80 mg/kg of alfaxalone into the abdominal cavities of the mice, and then 1% fluorescein was intraperitoneally injected into the mice. And then, after the mice were photographed by using a Micron IV device, the CNV lesion area was measured by using Image-Pro Plus software.
Accordingly, in the animal models prepared by the methods in Examples 1-9, the degree to which the contrast medium was leaked according to the administration of NMSSV was compared with that of the control.

C57BL/6 mice [5] = assay: Matrigel plug assay (in vivo VEGF-induced angiogenesis); parameters: species or system mouse; settings: seven days, FIG. 7
Procedure: A test material administration group and a VEGF (50 ng/ml) administration group were established, and each group consisted of six 8-week-old C57BL/6 mice. 0.5 ml of Matrigel, 50 U/ml of heparin, and a test material were formulated for use at each concentration right before the administration, and formulated such that VEGF was also included in the test material administration group. Seven days after the administration, a Matrigel plug was extracted, a photograph was taken, the amount of hemoglobin was measured by using the Drabkin method (Drabkin reagent kit 525, Sigma-Aldrich, Louis, Mo.), and purification was performed.
0.6 ml of the test material solution was administered to the dorsal hypodermis of each test animal by using a 1-ml syringe.
Thus, additionally through an in vivo Matrigel plug assay, the effects of P2 on in vivo angiogenesis were checked.

C57BL/6 mice [6] = assay: Laser-induced CNV mouse model, isolectin B4 immunofluorescence staining; assay type: in vivo; settings: intravitreal injection once, 2 weeks after laser, vs control, FIG. 9
Procedure: as §4, §5
14 days after the irradiation with laser, eyeballs were extracted from the mice, and then fixed in 4% paraformaldehyde for 1 hour. […] Thereafter, after the complex tissue was washed with PBS, the tissue with a fluorescence mounting medium (Vector, USA) was fixed on a slide glass, and then covered with a cover slip, and the tissue was observed and photographed through a fluorescence microscope. The CNV lesion area was measured by using Image-Pro Plus software. […]

ERK1/2 = assay: Phosphorylation assay of ERK1/2 in VEGF-induced HUVECs (Western); assay type: cell-based, human; settings: VEGF 50 ng/ml, FIG. 2
Procedure: as §1, §2

mouse aortic ring = assay: Aortic ring assay (ex vivo VEGF-induced vascularization); settings: in the presence of VEGF, FIG. 6
Procedure: 150 μl of Matrigel was put into a 48-well plate, uniformly spread by shaking the 48-well plate, and hardened in an incubator at 37° C. for 30 minutes. After a C57BL/6 mouse was over-anesthetized with ether and sacrificed, the aorta was extracted and washed with PBS to remove the fat, the resulting aorta was transferred to human endothelial-SFM and excised by using micro scissors. The excised aorta was placed on the hardened Matrigel, 50 μl of Matrigel was dropped on the aorta tissue, and then hardened in an incubator at 37° C. for 30 minutes. 200 μl of a medium including neo-N-methylsansalvamide (NMSSV) and VEGF was each added, and cells were observed while being cultured in a CO2 incubator at 37° C. After treatment with the test material, the cells were cultured for 14 days. On Day 7 and Day 14 of the culture, the cells were observed and photographed by an invert microscope (OLYMPUS, CKX41), and the lengths of the blood vessels produced were measured by photographing the aorta with the Toupview program (OLYMPUS, ver.3.5).
Based on the results in the Examples, the effects of P2 on ex vivo VEGF-induced neovascularization were identified, so that an aortic ring assay was performed in order to check the effects of P2 on the formation of capillary vessels in the presence of VEGF.

[7] = tested on: human umbilical vein endothelial cells (HUVECs); assay: MTT assay, VEGF-induced proliferation of HUVECs; assay type: cell-based; settings: 24 hours
Procedure: After being cultured to 80-90% confluence, human umbilical vein endothelial cells (HUVECs) were additionally cultured in an M199 medium supplemented with 1% FBS for 6 hours, and then treated with neo-N-methylsansalvamide (NMSSV) at various concentrations in the presence of VEGF (50 ng/ml) for 24 hours. Effects of neo-N-methylsansalvamide (NMSSV) on the viability and growth inhibition of the HUVEC cells were measured by a 3-(4,5-dimethylthiazol-2-yl)-2,5-diphenyltetrazolium bromide (MTT) assay method.
In order to identify the effects of the neo-N-methylsansalvamide (NMSSV, Peak 2, hereinafter, referred to as P2) of the present invention on the proliferation in VEGF-induced HUVECs, it was confirmed that cells were proliferated by culturing the cells with P2 at various concentrations in the presence or absence of VEGF (50 ng/ml) by the method in Example 1-2 and performing an MTT assay 24 hours after the culture.

Compound: CC(C)CC1OC(=O)[C@H](Cc2ccccc2)NC(=O)[C@H](CC(C)C)NC(=O)[C@H](C(C)C)NC(=O)[C@H](CC(C)C)N(C)C1=O (single isomer, unassigned) [P2, neo-N-methylsansalvamide]
- phosphorylation of AKT induced by VEGF (AKT): inhibited the phosphorylation
- phosphorylation of eNOS induced by VEGF (eNOS): inhibited the phosphorylation
- VEGF-induced colony tube formation in HUVECs (HUVECs [1]): significantly inhibited
- invasion of HUVECs due to VEGF through Matrigel (HUVECs [2]): blocked
- VEGF-induced migration of HUVECs (HUVECs [3]): significantly decreased
- CNV lesion area (angiography) (C57BL/6 mice [4]): the CNV lesion area is decreased
- fluorescein leakage (C57BL/6 mice [4]): the fluorescein leakage was decreased
- content of hemoglobin of Matrigel plug treated with VEGF (C57BL/6 mice [5]; Drabkin method): continuously inhibited the content of hemoglobin
- formation of new blood vessels in Matrigel plug (C57BL/6 mice [5]; compared to VEGF alone, subcutaneous plug): the formation of new blood vessels was decreased
- CNV lesion area (isolectin B4 stained area) (C57BL/6 mice [6]): significantly decreased
- phosphorylation of ERK1/2 induced by VEGF (ERK1/2): inhibited the phosphorylation
- formation of VEGF-induced blood vessels in a mouse aortic ring (mouse aortic ring): significantly inhibited
- proliferation of HUVECs induced by VEGF ([7]; VEGF 50 ng/ml, MTT, FIG. 1): dose-dependently inhibited
- apoptosis (cytotoxicity) in HUVECs ([7]; at 5 μg/ml of P2, MTT): significant apoptosis was not detected
